Patent US8802597B2, “Herbicidal pyrimidines” (E I du Pont de Nemours and Company, priority 2003, dated 2014)

How the values were obtained:
Assay in all cases: Test G pre/postemergence
Type in all cases: in vivo
Conditions in all cases: Preemergence
[1] = tested on: prickly sida (Sida spinosa)
In short: (§1)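 Pre- and postemergence greenhouse test; compound in non-phytotoxic solvent/surfactant mix. Post timing: 2–18 cm plants, 1- to 4-leaf. Visual rating vs controls at 12–21 d, 0 (no effect) to 100 (complete control).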

[2] = tested on: purple nutsedge (Cyperus rotundus)
In short: as §1

[3] = tested on: bermudagrass (Cynodon dactylon)
In short: as §1

[4] = tested on: green foxtail (Setaria viridis)
In short: as §1

[5] = tested on: common chickweed (Stellaria media)
In short: as §1

[6] = tested on: common sowthistle (Sonchus oleraceous)
In short: as §1

[7] = tested on: spanishneedles (Bidens bipinnata)
In short: as §1

[8] = tested on: pitted morningglory (Ipomoea lacunosa)
In short: as §1

[9] = tested on: Canada horseweed (Conyza canadensis)
In short: as §1

[10] = tested on: common purslane (Portulaca oleracea)
In short: as §1

[11] = tested on: large crabgrass (Digitaria sanguinalis)
In short: as §1

CCOC(=O)c1nc(C2CC2)nc(N)c1Cl [Compound 4, ethyl 6-amino-5-chloro-2-cyclopropyl-4-pyrimidinecarboxylate]
Plant response rating, Prickly Sida ([1]; 62 g ai/ha, scale 0-100): 85 | Plant response rating, Prickly Sida ([1]; 125 g ai/ha, scale 0-100): 100 | Plant response rating, Prickly Sida ([1]; 250 g ai/ha, scale 0-100): 100 | Plant response rating, Prickly Sida ([1]; 500 g ai/ha, scale 0 to 100): 100 | Plant response rating, Nutsedge, Purple ([2]; 62 g ai/ha, scale 0-100): 40 | Plant response rating, Nutsedge, Purple ([2]; 125 g ai/ha, scale 0-100): 100 | Plant response rating, Nutsedge, Purple ([2]; 250 g ai/ha, scale 0-100): 100 | Plant response rating, Nutsedge, Purple ([2]; 500 g ai/ha, scale 0 to 100): 100 | Plant response rating, Bermudagrass ([3]; 62 g ai/ha, scale 0-100): 20 | Plant response rating, Bermudagrass ([3]; 125 g ai/ha, scale 0-100): 90 | Plant response rating, Bermudagrass ([3]; 250 g ai/ha, scale 0-100): 95 | Plant response rating, Bermudagrass ([3]; 500 g ai/ha, scale 0 to 100): 100 | Plant response rating, Foxtail, Green ([4]; 62 g ai/ha, scale 0-100): 20 | Plant response rating, Foxtail, Green ([4]; 125 g ai/ha, scale 0-100): 70 | Plant response rating, Foxtail, Green ([4]; 250 g ai/ha, scale 0-100): 100 | Plant response rating, Foxtail, Green ([4]; 500 g ai/ha, scale 0 to 100): 100 | Plant response rating, Chickweed ([5]; 62 g ai/ha, scale 0-100): 100 | Plant response rating, Chickweed ([5]; 125 g ai/ha, scale 0-100): 100 | Plant response rating, Chickweed ([5]; 250 g ai/ha, scale 0-100): 100 | Plant response rating, Chickweed ([5]; 500 g ai/ha, scale 0 to 100): 100 | Plant response rating, Sowthistle ([6]; 62 g ai/ha, scale 0-100): 100 | Plant response rating, Sowthistle ([6]; 125 g ai/ha, scale 0-100): 100 | Plant response rating, Sowthistle ([6]; 250 g ai/ha, scale 0-100): 100 | Plant response rating, Sowthistle ([6]; 500 g ai/ha, scale 0 to 100): 100 | Plant response rating, Spanishneedles ([7]; 62 g ai/ha, scale 0-100): 100 | Plant response rating, Spanishneedles ([7]; 125 g ai/ha, scale 0-100): 100 | Plant response rating, Spanishneedles ([7]; 250 g ai/ha, scale 0-100): 100 | Plant response rating, Spanishneedles ([7]; 500 g ai/ha, scale 0 to 100): 100 | Plant response rating, Morningglory ([8]; 62 g ai/ha, scale 0-100): 100 | Plant response rating, Morningglory ([8]; 125 g ai/ha, scale 0-100): 100 | Plant response rating, Morningglory ([8]; 250 g ai/ha, scale 0-100): 100 | Plant response rating, Morningglory ([8]; 500 g ai/ha, scale 0 to 100): 100 | Plant response rating, Horseweed ([9]; 62 g ai/ha, scale 0-100): 100 | Plant response rating, Horseweed ([9]; 125 g ai/ha, scale 0-100): 100 | Plant response rating, Horseweed ([9]; 250 g ai/ha, scale 0-100): 100 | Plant response rating, Horseweed ([9]; 500 g ai/ha, scale 0 to 100): 100 | Plant response rating, Purslane ([10]; 62 g ai/ha, scale 0-100): 60 | Plant response rating, Purslane ([10]; 125 g ai/ha, scale 0-100): 100 | Plant response rating, Purslane ([10]; 250 g ai/ha, scale 0-100): 100 | Plant response rating, Purslane ([10]; 500 g ai/ha, scale 0 to 100): 100 | Plant response rating, Crabgrass, Large ([11]; 62 g ai/ha, scale 0-100): 60 | Plant response rating, Crabgrass, Large ([11]; 125 g ai/ha, scale 0-100): 75 | Plant response rating, Crabgrass, Large ([11]; 250 g ai/ha, scale 0-100): 100 | Plant response rating, Crabgrass, Large ([11]; 500 g ai/ha, scale 0 to 100): 100
